Assay results taken from PubChem BioAssay AID248 (DTP/NCI, 2004).
Toxic doses and inconclusive results are not listed. Rule as the data show it: active = T/C of 150% or more; inactive = T/C below 125%.

Tested on: L1210 leukemia ip in BDF1 mice, survival T/C
Assay: NCI In Vivo Anticancer Drug Screen. Data for tumor model L1210 Leukemia (intraperitoneal) in B6D2F1 (BDF1) mice
Conditions: endpoint: mean survival time, higher = longer survival
How it was run: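 Antitumor effect is assessed in tumor-bearing animals. Survival in the compound arm is compared with a vehicle-dosed control arm and expressed as their quotient.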

[1] = dose: 100.0 mg/kg/injection, schedule: Q04DX003 (ip), vehicle: saline with Tween-80
[2] = dose: 200.0 mg/kg/injection, schedule: Q04DX003 (ip), vehicle: saline with Tween-80
[3] = dose: 400.0 mg/kg/injection, schedule: Q04DX003 (ip), vehicle: saline with Tween-80

Measured: T/C

CCc1ccc(/C=C/c2ccc(O)c3ncccc23)[n+](C)c1
inactive: dose: 2.0 mg/kg/injection, schedule: Q01DX015 (ip), vehicle: carboxymethylcellulose (CMC) 115 % of control | dose: 2.0 mg/kg/injection, schedule: Q03HX008 (ip), vehicle: other 94 % of control | dose: 2.0 mg/kg/injection, schedule: Q03HX016 (ip), vehicle: other 90 % of control | dose: 2.0 mg/kg/injection, schedule: Q03HX024 (ip), vehicle: other 98 % of control | dose: 4.0 mg/kg/injection, schedule: Q01DX009 (ip), vehicle: carboxymethylcellulose (CMC) 120 % of control | dose: 4.0 mg/kg/injection, schedule: Q01DX009 (ip), vehicle: other 97 % of control | dose: 4.0 mg/kg/injection, schedule: Q01DX015 (ip), vehicle: carboxymethylcellulose (CMC) 108 % of control | dose: 4.0 mg/kg/injection, schedule: Q03HX008 (ip), vehicle: other 98 % of control | dose: 4.0 mg/kg/injection, schedule: Q03HX016 (ip), vehicle: other 96 % of control | dose: 4.0 mg/kg/injection, schedule: Q03HX024 (ip), vehicle: other 97 % of control | dose: 5.0 mg/kg/injection, schedule: Q01DX001 (ip), vehicle: carboxymethylcellulose (CMC) 94 % of control | dose: 6.25 mg/kg/injection, schedule: Q01DX009 (ip), vehicle: saline 108 % of control | dose: 6.25 mg/kg/injection, schedule: Q04DX003 (ip), vehicle: saline 107 % of control | dose: 8.0 mg/kg/injection, schedule: Q01DX009 (ip), vehicle: other 106 % of control | dose: 8.0 mg/kg/injection, schedule: Q01DX015 (ip), vehicle: carboxymethylcellulose (CMC) 113 % of control | dose: 8.0 mg/kg/injection, schedule: Q03HX008 (ip), vehicle: other 104 % of control | dose: 8.0 mg/kg/injection, schedule: Q03HX016 (ip), vehicle: other 103 % of control | dose: 8.0 mg/kg/injection, schedule: Q03HX024 (ip), vehicle: other 108 % of control | dose: 10.0 mg/kg/injection, schedule: Q01DX001 (ip), vehicle: carboxymethylcellulose (CMC) 100 % of control | dose: 12.5 mg/kg/injection, schedule: Q01DX001 (ip), vehicle: saline 104 % of control | dose: 12.5 mg/kg/injection, schedule: Q01DX009 (ip), vehicle: saline 124 % of control | dose: 12.5 mg/kg/injection, schedule: Q04DX003 (ip), vehicle: saline 110 % of control | dose: 16.0 mg/kg/injection, schedule: Q01DX001 (ip), vehicle: other 107 % of control | dose: 16.0 mg/kg/injection, schedule: Q01DX009 (ip), vehicle: other 120 % of control | dose: 16.0 mg/kg/injection, schedule: Q03HX008 (ip), vehicle: other 112 % of control | dose: 16.0 mg/kg/injection, schedule: Q03HX016 (ip), vehicle: other 110 % of control | dose: 16.0 mg/kg/injection, schedule: Q03HX024 (ip), vehicle: other 122 % of control | dose: 16.0 mg/kg/injection, schedule: Q04DX003 (ip), vehicle: other 100 % of control | dose: 16.0 mg/kg/injection, schedule: Q08DX002 (ip), vehicle: other 97 % of control | dose: 20.0 mg/kg/injection, schedule: Q01DX001 (ip), vehicle: carboxymethylcellulose (CMC) 112 % of control | dose: 25.0 mg/kg/injection, schedule: Q01DX001 (ip), vehicle: saline 114 % of control | dose: 25.0 mg/kg/injection, schedule: Q01DX009 (ip), vehicle: saline 117 % of control | dose: 25.0 mg/kg/injection, schedule: Q04DX003 (ip), vehicle: saline 110 % of control | dose: 32.0 mg/kg/injection, schedule: Q01DX001 (ip), vehicle: other 102 % of control | dose: 32.0 mg/kg/injection, schedule: Q01DX009 (ip), vehicle: other 123 % of control | dose: 32.0 mg/kg/injection, schedule: Q01DX015 (ip), vehicle: carboxymethylcellulose (CMC) 121 % of control | dose: 32.0 mg/kg/injection, schedule: Q04DX003 (ip), vehicle: other 96 % of control | dose: 32.0 mg/kg/injection, schedule: Q08DX002 (ip), vehicle: other 96 % of control | dose: 40.0 mg/kg/injection, schedule: Q01DX001 (ip), vehicle: carboxymethylcellulose (CMC) 112 % of control

COc1ccccc1OCC(=O)N1CCCCC1
inactive: dose: 100.0 mg/kg/injection, schedule: Q04DX002 (ip), vehicle: saline 101 % of control | dose: 200.0 mg/kg/injection, schedule: Q04DX002 (ip), vehicle: saline 107 % of control | dose: 400.0 mg/kg/injection, schedule: Q04DX002 (ip), vehicle: saline 90 % of control

Cc1cc(C(C)(C)c2ccc(O)c(C)c2)ccc1O
inactive: dose: 50.0 mg/kg/injection, schedule: Q01DX009 (ip), vehicle: saline 97 % of control | dose: 100.0 mg/kg/injection, schedule: Q01DX009 (ip), vehicle: saline 97 % of control | [1] 100 % of control | dose: 200.0 mg/kg/injection, schedule: Q01DX009 (ip), vehicle: saline 94 % of control | [2] 102 % of control | [3] 107 % of control

O=C(C=P(c1ccccc1)(c1ccccc1)c1ccccc1)CCl
inactive: dose: 6.25 mg/kg/injection, schedule: Q01DX001 (ip), vehicle: Klucel (hydroxypropylcellulose) (HPC) 102 % of control | dose: 6.25 mg/kg/injection, schedule: Q01DX009 (ip), vehicle: Klucel (hydroxypropylcellulose) (HPC) 103 % of control | dose: 6.25 mg/kg/injection, schedule: Q04DX003 (ip), vehicle: Klucel (hydroxypropylcellulose) (HPC) 97 % of control | dose: 12.5 mg/kg/injection, schedule: Q01DX001 (ip), vehicle: Klucel (hydroxypropylcellulose) (HPC) 98 % of control | dose: 12.5 mg/kg/injection, schedule: Q01DX009 (ip), vehicle: Klucel (hydroxypropylcellulose) (HPC) 101 % of control | dose: 12.5 mg/kg/injection, schedule: Q04DX003 (ip), vehicle: Klucel (hydroxypropylcellulose) (HPC) 97 % of control | dose: 25.0 mg/kg/injection, schedule: Q01DX001 (ip), vehicle: Klucel (hydroxypropylcellulose) (HPC) 98 % of control | dose: 25.0 mg/kg/injection, schedule: Q01DX009 (ip), vehicle: Klucel (hydroxypropylcellulose) (HPC) 104 % of control | dose: 25.0 mg/kg/injection, schedule: Q04DX003 (ip), vehicle: Klucel (hydroxypropylcellulose) (HPC) 100 % of control

Cc1cc(CC(O)(C(F)(F)F)C(F)(F)F)c(C#N)c(=O)[nH]1
inactive: [1] 97 % of control | [2] 97 % of control | [3] 97 % of control

CN(CC(=O)O)CC1C(c2ccccc2)C1c1ccccc1 (centres undefined)
inactive: dose: 100.0 mg/kg/injection, schedule: Q04DX002 (ip), vehicle: Klucel (hydroxypropylcellulose) (HPC) 100 % of control | dose: 200.0 mg/kg/injection, schedule: Q04DX002 (ip), vehicle: Klucel (hydroxypropylcellulose) (HPC) 93 % of control

Cc1ncccc1CO
inactive: dose: 100.0 mg/kg/injection, schedule: Q04DX002 (ip), vehicle: gum acacia 104 % of control | dose: 200.0 mg/kg/injection, schedule: Q04DX002 (ip), vehicle: gum acacia 90 % of control | dose: 400.0 mg/kg/injection, schedule: Q04DX002 (ip), vehicle: gum acacia 87 % of control

Cc1cc2ccccc2cn1
inactive: dose: 50.0 mg/kg/injection, schedule: Q01DX001 (ip), vehicle: other 103 % of control | dose: 100.0 mg/kg/injection, schedule: Q01DX001 (ip), vehicle: other 101 % of control | [1] 96 % of control | dose: 200.0 mg/kg/injection, schedule: Q01DX001 (ip), vehicle: other 95 % of control | [2] 103 % of control

COC1=C(Cl)C(=O)C(OC)=C(Cl)C1=O
inactive: dose: 5.0 mg/kg/injection, schedule: Q01DX001 (ip), vehicle: saline 97 % of control | dose: 10.0 mg/kg/injection, schedule: Q01DX001 (ip), vehicle: saline 95 % of control | dose: 20.0 mg/kg/injection, schedule: Q01DX001 (ip), vehicle: saline 106 % of control | dose: 40.0 mg/kg/injection, schedule: Q01DX001 (ip), vehicle: saline 101 % of control
